{
  "source": "paper PMC7250802",
  "about": "“Initial Evaluation of AF78: a Rationally Designed Fluorine-18-Labelled PET Radiotracer Targeting Norepinephrine Transporter” (Molecular Imaging and Biology, 2019)",
  "target": "T1, norepinephrine transporter (NET) (Homo sapiens, UniProt P23975)",
  "T1 construct": "gene SLC6A2",
  "T1 sequence (P23975 whole entry)": "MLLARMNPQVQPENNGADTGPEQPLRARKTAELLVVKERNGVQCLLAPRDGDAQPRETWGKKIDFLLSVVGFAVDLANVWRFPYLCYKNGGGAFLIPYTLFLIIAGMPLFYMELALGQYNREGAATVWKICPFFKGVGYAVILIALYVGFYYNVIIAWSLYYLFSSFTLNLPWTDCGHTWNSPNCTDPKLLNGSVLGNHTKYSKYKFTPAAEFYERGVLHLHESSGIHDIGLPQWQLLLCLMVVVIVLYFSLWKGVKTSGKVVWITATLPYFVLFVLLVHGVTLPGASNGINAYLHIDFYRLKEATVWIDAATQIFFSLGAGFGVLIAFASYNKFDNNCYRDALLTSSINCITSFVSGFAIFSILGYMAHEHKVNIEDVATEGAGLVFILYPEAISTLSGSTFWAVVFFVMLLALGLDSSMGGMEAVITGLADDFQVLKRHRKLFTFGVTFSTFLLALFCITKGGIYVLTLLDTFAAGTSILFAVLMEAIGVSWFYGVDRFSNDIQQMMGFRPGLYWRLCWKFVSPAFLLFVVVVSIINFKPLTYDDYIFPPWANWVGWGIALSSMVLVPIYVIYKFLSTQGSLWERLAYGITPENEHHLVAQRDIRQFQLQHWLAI",
  "assay": "competitive inhibition of […]AF78 uptake in SK-N-SH cells ([…] against […]MIBG)",
  "format": "cell-based",
  "data": [
    {"smiles": "N=C(N)NCCc1ccc(F)c(O)c1", "note": "[4F-MHPG, 4-[^18F]fluoro-3-hydroxyphenethylguanidine]", "values": [
      {"measurement": "IC50", "value": "850 ± 630", "unit": "nM"}
    ]}
  ]
}
